Here are results for 16 compounds from patent US20250179103A1, “6-OXODECAHYDROPYRROLO[1,2-A][1,5]DIAZOCINE AND 6-OXODECAHYDRO-4H-PYRROLO[2,1-D][1,5]THIAZOCINE DERIVATIVES AS STAT3 AND STAT6 MODULATORS FOR THE TREATMENT OF CANCER AND INFLAMMATORY CONDITIONS” (Recludix Pharma, Inc., priority 2022, published 2025).

A value given as a limit tells only on which side of the number the result lay.

Assay [1] addresses T1, Recombinant STAT3 protein (STAT3(G127-I722)) (Homo sapiens, UniProt P40763).
T1 construct: Recombinant STAT3 protein (STAT3(G127-I722))
The assay is described as follows: STAT3 Fluorescence Polarization (FP) Assay. The assay is classed as binding. As to conditions: STAT3(G127-I722) 25 nM, probe 5-FAM-GpYLPQTV-NH2 2 nM, 45-minute incubation. The method, boiled down:
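STAT3(G127-I722), 25 nM, was mixed with 2 nM 5-FAM-GpYLPQTV-NH2 probe in HEPES pH 7.4 buffer with 1% DMSO and serially diluted compound. FP (mP) was read after 45 min at room temperature. IC50 came from nonlinear regression.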

Assay [2] concerns the target T2, Recombinant STAT6 protein (STAT6(W123-T658)) (Homo sapiens, UniProt P42226).
T2 construct: Recombinant STAT6 protein (STAT6(W123-T658))
T2 sequence (P42226 123-658): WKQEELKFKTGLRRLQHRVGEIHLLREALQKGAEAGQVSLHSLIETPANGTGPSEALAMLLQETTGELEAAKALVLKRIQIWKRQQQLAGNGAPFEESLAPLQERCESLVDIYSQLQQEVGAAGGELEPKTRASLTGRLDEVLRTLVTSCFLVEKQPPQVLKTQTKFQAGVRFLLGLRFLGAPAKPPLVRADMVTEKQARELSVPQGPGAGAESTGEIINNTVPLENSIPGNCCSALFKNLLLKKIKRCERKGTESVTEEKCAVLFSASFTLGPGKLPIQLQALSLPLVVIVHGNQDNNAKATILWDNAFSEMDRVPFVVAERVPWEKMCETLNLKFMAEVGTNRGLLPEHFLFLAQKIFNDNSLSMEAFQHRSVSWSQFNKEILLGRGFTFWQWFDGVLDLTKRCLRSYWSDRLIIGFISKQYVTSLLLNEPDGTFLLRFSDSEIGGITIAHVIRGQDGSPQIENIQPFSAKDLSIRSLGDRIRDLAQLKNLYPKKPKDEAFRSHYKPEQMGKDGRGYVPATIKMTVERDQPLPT
The assay is described as follows: STAT6 Fluorescence Polarization (FP) Assay. The assay is classed as binding. The note with it: STAT6(W123-T658) 250 nM, probe 5-FAM-ApYKPFQDLI-NH2 2 nM, 45-minute incubation. The method, boiled down:
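Displacement of a fluorescent phosphotyrosine peptide (5-FAM-ApYKPFQDLI-NH2, 2 nM) from STAT6(W123-T658) (250 nM), 1% DMSO, pH 7.4 HEPES buffer. After 45 min at room temperature, polarization (mP) was plotted versus log compound concentration and fitted by nonlinear regression to give IC50.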
In general terms: Polarisation of emitted light reports the rotation of a fluorescent probe.

T1 sequence (P40763 127-722): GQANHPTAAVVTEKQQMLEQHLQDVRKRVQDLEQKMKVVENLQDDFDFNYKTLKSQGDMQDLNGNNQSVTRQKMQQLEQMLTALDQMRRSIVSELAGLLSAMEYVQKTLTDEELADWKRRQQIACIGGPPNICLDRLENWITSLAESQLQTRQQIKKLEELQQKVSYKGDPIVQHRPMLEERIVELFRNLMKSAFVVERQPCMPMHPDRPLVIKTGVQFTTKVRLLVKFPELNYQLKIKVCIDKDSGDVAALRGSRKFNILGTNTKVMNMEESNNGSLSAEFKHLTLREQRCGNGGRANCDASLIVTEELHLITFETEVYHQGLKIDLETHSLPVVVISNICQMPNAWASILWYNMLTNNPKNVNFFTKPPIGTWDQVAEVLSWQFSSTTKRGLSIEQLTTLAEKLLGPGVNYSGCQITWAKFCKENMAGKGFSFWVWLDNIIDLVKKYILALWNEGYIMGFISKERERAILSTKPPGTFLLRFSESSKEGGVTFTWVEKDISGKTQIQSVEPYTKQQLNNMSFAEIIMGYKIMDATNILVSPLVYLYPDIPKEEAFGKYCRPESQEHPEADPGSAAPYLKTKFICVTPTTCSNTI

One may read the IC50 as the point on the concentration scale where inhibition reaches its midpoint. With `CN(C(=O)[C@@H]1CC[C@@H]2CCN(C(=O)Cc3ccccc3)C[C@H](NC(=O)c3cc4cc(C(F)(F)P(=O)(O)O)ccc4[nH]3)C(=O)N21)c1ccccc1` [Compound 3, (difluoro(2-(((5S,8S,10aR)-8-(methyl(phenyl)carbamoyl)-6-oxo-3-(2-phenylacetyl)decahydropyrrolo[1,2-a][1,5]diazocin-5-yl)carbamoyl)-1H-indol-5-yl)methyl)phosphonic acid], the values for the IC50 in assay [1] and in assay [2] were 1 to 10 µM and 0.3 to 3 µM, respectively.
For `CC(=O)N1CC[C@H]2CC[C@@H](C(=O)N[C@H]3CN(S(C)(=O)=O)C[C@@H]3O)N2C(=O)[C@@H](NC(=O)c2cc3cc(C(F)(F)P(=O)(O)O)ccc3s2)C1` [Compound 6, ((2-(((5S,8S,10aR)-3-acetyl-8-(((3S,4S)-4-hydroxy-1-(methylsulfonyl)pyrrolidin-3-yl)carbamoyl)-6-oxodecahydropyrrolo[1,2-a][1,5]diazocin-5-yl)carbamoyl)benzo[b]thiophen-5-yl)difluoromethyl)phosphonic Acid] the same measures were 1 to 10 µM and 0.3 to 3 µM.
For `CC(=O)N1CC[C@H]2CC[C@@H](C(=O)N3CCC4C3CN4c3ccccc3)N2C(=O)[C@@H](NC(=O)c2cc3cc(C(F)(F)P(=O)(O)O)ccc3s2)C1` (stereo partly drawn) [Compound 11, ((2-(((5S,8S,10aR)-3-acetyl-6-oxo-8-(6-phenyl-2,6-diazabicyclo[3.2.0]heptane-2-carbonyl)decahydropyrrolo[1,2-a][1,5]diazocin-5-yl)carbamoyl)benzo[b]thiophen-5-yl)difluoromethyl)phosphonic acid] the same measures were 0.1 to 1 µM and 0.3 to 3 µM.
With `CC(=O)N1CC[C@H]2CC[C@@H](C(=O)N(C)c3ccccc3)N2C(=O)[C@@H](NC(=O)c2ccc3ccc(C(F)P(=O)(O)O)cc3c2)C1` (stereo partly drawn) [Compound 14, ((7-(((5S,8S,10aR)-3-acetyl-8-(methyl(phenyl)carbamoyl)-6-oxodecahydropyrrolo[1,2-a][1,5]diazocin-5-yl)carbamoyl)naphthalen-2-yl)fluoromethyl)phosphonic acid], the results for the IC50 in assay [1] and in assay [2] were more than 10 µM and 0.3 to 3 µM, respectively.
Take `CC(=O)N1CC[C@H]2CC[C@@H](C(=O)N(C)c3ccccc3)N2C(=O)[C@@H](NC(=O)c2ccc3ccc(CP(=O)(O)O)cc3c2)C1` [Compound 15, ((7-(((5S,8S,10aR)-3-acetyl-8-(methyl(phenyl)carbamoyl)-6-oxodecahydropyrrolo[1,2-a][1,5]diazocin-5-yl)carbamoyl)naphthalen-2-yl)methyl)phosphonic acid]: the 50% inhibitory concentration (IC50) in assay [1] is more than 10 µM; in assay [2], 3 to 30 µM.
In the same order, the values of `CC(=O)N1CC[C@H]2CC[C@@H](C(=O)N(C)c3ccccc3)N2C(=O)[C@@H](NC(=O)c2cc3cc(C(C#N)P(=O)(O)O)ccc3s2)C1` (stereo partly drawn) [Compound 16, ((2-(((5S,8S,10aR)-3-acetyl-8-(methyl(phenyl)carbamoyl)-6-oxodecahydropyrrolo[1,2-a][1,5]diazocin-5-yl)carbamoyl)benzo[b]thiophen-5-yl)(cyano)methyl)phosphonic acid] are more than 10 µM and more than 30 µM.
For `CC(=O)N1CC[C@H]2CC[C@@H](C(=O)Nc3ccc(-c4ccccc4)cc3)N2C(=O)[C@@H](NC(=O)c2cc3cc(C(F)P(=O)(O)O)ccc3s2)C1` (stereo partly drawn) [Compound 17, ((2-(((5S,8S,10aR)-8-([1,1′-biphenyl]-4-ylcarbamoyl)-3-acetyl-6-oxodecahydropyrrolo[1,2-a][1,5]diazocin-5-yl)carbamoyl)benzo[b]thiophen-5-yl)fluoromethyl)phosphonic acid], the results for the half-inhibitory concentration (IC50) in assay [1] and in assay [2] were 1 to 10 µM and 0.3 to 3 µM, respectively.
Turning to `CC(=O)N1CC[C@H]2CC[C@@H](C(=O)N(C)c3ccccc3)N2C(=O)[C@@H](NC(=O)c2cc3cc(C(C)(F)P(=O)(O)O)ccc3s2)C1` (stereo partly drawn) [Compound 18, (1-(2-(((5S,8S,10aR)-3-acetyl-8-(methyl(phenyl)carbamoyl)-6-oxodecahydropyrrolo[1,2-a][1,5]diazocin-5-yl)carbamoyl)benzo[b]thiophen-5-yl)-1-fluoroethyl)phosphonic acid], the IC50 is more than 10 µM in assay [1] and 3 to 30 µM in assay [2].
In the same order, the values of `CC(=O)N1CC[C@H]2CC[C@@H](C(=O)N(C)c3ccccc3)N2C(=O)[C@@H](NC(=O)c2cc3cc(C(CO)P(=O)(O)O)ccc3s2)C1` (stereo partly drawn) [Compound 19, (1-(2-(((5S,8S,10aR)-3-acetyl-8-(methyl(phenyl)carbamoyl)-6-oxodecahydropyrrolo[1,2-a][1,5]diazocin-5-yl)carbamoyl)benzo[b]thiophen-5-yl)-2-hydroxyethyl)phosphonic acid] are more than 10 µM and more than 30 µM.
Regarding `CC(=O)N1CC[C@H]2CC[C@@H](C(=O)N(C)c3ccccc3)N2C(=O)[C@@H](NC(=O)c2cc3cc(C(C)P(=O)(O)O)ccc3s2)C1` (stereo partly drawn) [Compound 20, (1-(2-(((5S,8S,10aR)-3-acetyl-8-(methyl(phenyl)carbamoyl)-6-oxodecahydropyrrolo[1,2-a][1,5]diazocin-5-yl)carbamoyl)benzo[b]thiophen-5-yl)ethyl)phosphonic acid], the concentration for half-maximal inhibition (IC50) in assay [1] is more than 10 µM; in assay [2], more than 30 µM.
In the same order, the values of `CC(=O)N1CC[C@H]2CC[C@@H](C(=O)N(C)c3ccccc3)N2C(=O)[C@@H](NC(=O)c2cc3cc(C(C)(C)P(=O)(O)O)ccc3s2)C1` [Compound 21, (2-(2-(((5S,8S,10aR)-3-acetyl-8-(methyl(phenyl)carbamoyl)-6-oxodecahydropyrrolo[1,2-a][1,5]diazocin-5-yl)carbamoyl)benzo[b]thiophen-5-yl)propan-2-yl)phospnoic aicd] are more than 10 µM and more than 30 µM.
In the case of `CC(=O)N1CC[C@H]2CC[C@@H](C(=O)N(C)c3ccccc3)N2C(=O)[C@@H](NC(=O)c2cc3cc(C(F)P(=O)(O)O)ccc3s2)C1` (stereo partly drawn) [Compound 22, ((2-(((5S,8S,10aR)-3-acetyl-8-(methyl(phenyl)carbamoyl)-6-oxodecahydropyrrolo[1,2-a][1,5]diazocin-5-yl)carbamoyl)benzo[b]thiophen-5-yl)fluoromethyl)phosphonic acid], the IC50 in assay [1] is more than 10 µM; in assay [2], 0.3 to 3 µM.
For `CCC(=O)N(C)[C@@H]1CCN(C(=O)[C@@H]2CC[C@@H]3CCN(C(C)=O)C[C@H](NC(=O)c4cc5cc(C(F)(F)P(=O)(O)O)ccc5[nH]4)C(=O)N32)C1` [Compound 23, ((2-(((5S,8S,10aR)-3-acetyl-8-((R)-3-(N-methylpropionamido)pyrrolidine-1-carbonyl)-6-oxodecahydropyrrolo[1,2-a][1,5]diazocin-5-yl)carbamoyl)-1H-indol-5-yl)difluoromethyl)phosphonic acid] the same measures were 1 to 10 µM and 0.3 to 3 µM.
Consider `CC(=O)N1CC(NC(=O)[C@@H]2CC[C@@H]3CCN(C(C)=O)C[C@H](NC(=O)c4cc5cc(C(F)(F)P(=O)(O)O)ccc5[nH]4)C(=O)N32)C1` [Compound 24, ((2-(((5S,8S,10aR)-3-acetyl-8-((1-acetylazetidin-3-yl)carbamoyl)-6-oxodecahydropyrrolo[1,2-a][1,5]diazocin-5-yl)carbamoyl)-1H-indol-5-yl)difluoromethyl)phosphonic acid], for which the half-maximal inhibitory concentration (IC50) in assay [1] lay in the range of 0.1 to 1 µM; in assay [2] it was 0.3 to 3 µM.
Consider `CCC(=O)NCCCN(C)C(=O)[C@@H]1CC[C@@H]2CCN(C(C)=O)C[C@H](NC(=O)/C=C(\C)c3ccc(C(F)(F)P(=O)(O)O)cc3)C(=O)N21` [Compound 25, ((4-((E)-4-(((5S,8S,10aR)-3-acetyl-8-(methyl(3-propionamidopropyl)carbamoyl)-6-oxodecahydropyrrolo[1,2-a][1,5]diazocin-5-yl)amino)-4-oxobut-2-en-2-yl)phenyl)difluoromethyl)phosphonic acid], for which the 50% inhibitory concentration (IC50) in assay [1] was more than 10 µM; in assay [2], 3 to 30 µM.
On to `CCC(=O)NCCCN(C)C(=O)[C@@H]1CC[C@@H]2CCN(C(C)=O)C[C@H](NC(=O)/C=C/c3ccc(C(F)(F)P(=O)(O)O)cc3)C(=O)N21` [Compound 26, ((4-((E)-3-(((5S,8S,10aR)-3-acetyl-8-(methyl(3-propionamidopropyl)carbamoyl)-6-oxodecahydropyrrolo[1,2-a][1,5]diazocin-5-yl)amino)-3-oxoprop-1-en-1-yl)phenyl)difluoromethyl)phosphonic acid], for which the IC50 was more than 10 µM in assay [1] and more than 30 µM in assay [2].
